Test results published in patent US8404664B2, “Phosphonated Rifamycins and uses thereof for the prevention and treatment of bone and joint infections” (Targanta Therapeutics, Inc., priority 2005, dated 2013).
≈ marks a conversion by molar mass, not a printed value. Where “and” joins values, the source holds several entries; their conditions need not be identical. Identical values can stand only once.

What was measured:
[1] = test system: E. coli LBB925 (tolC mutant); test: Antibacterial susceptibility (MIC), NCCLS broth microdilution; format: cell-based; settings: for Minimum inhibitory concentration, E. coli LBB925: tolC mutant; for MIC: Escherichia coli, read-out: Minimum inhibitory concentration, E. coli LBB925
S. aureus RN4220 = test: as above; format: cell-based; settings: CAMHB, 37° C., 18 h; for MIC: Staphylococcus aureus, RN4220, read-out: Minimum inhibitory concentration, S. aureus RN4220
Protocol: (§1) Susceptibility of S. aureus strains to the known antibiotics and synthesized compounds was determined by following the guidelines set by NCCLS (M26-A). Compounds were diluted two-fold serially in DMSO and transferred to cation-adjusted Mueller Hinton broth (CAMHB; Becton Dickinson). 50 μL of compounds diluted in CAMHB was mixed with 100 μL of bacteria diluted in CAMHB in 96-well microtiter plates. The final concentration of micro-organisms in the assay was 5×10^5 c.f.u. per mL and the final concentration of DMSO in the assay was 1.25%. Assays were set up in duplicate and incubated at 37° C. for 18 h. The lowest concentration of compound that inhibited visible growth was reported as the minimum inhibitory concentration (MIC).

S. aureus ATCC 13709 [2] = test: as above; format: cell-based; settings: for Antibacterial activity (in words, summary of Table 1): summary over the strains of Table 1; for MIC: Staphylococcus aureus, ATCC13709, read-out: Minimum inhibitory concentration, S. aureus ATCC 13709
Protocol: as §1

[3] = test system: S. aureus BK85 (Fluoroquinolone resistant MRSA); test: as above; format: cell-based; settings: for MIC: Staphylococcus aureus, read-out: Minimum inhibitory concentration, S. aureus BK85
Protocol: as §1

[4] = test system: S. aureus ATCC 43300 (Fluoroquinolone sensitive MRSA); test: as above; format: cell-based; settings: for MIC: Staphylococcus aureus, read-out: Minimum inhibitory concentration, S. aureus ATCC 43300
Protocol: as §1

S. aureus ATCC 13709 [5] = test: Antibacterial susceptibility (MIC) in the presence of serum; format: cell-based; settings: for MIC: Staphylococcus aureus, ATCC13709, 18 h
Protocol: as §1
Susceptibility testing experiments were also carried out in the presence of serum.
These experiments were carried out similar to the susceptibility testing with the following modifications. 75 μL of compounds diluted in CAMHB was mixed with 75 μL of bacteria diluted in 100% serum from any given source (commercial pooled mouse serum (MS) and human serum (HS), Equitech-Bio Inc.) or diluted in 8% purified human serum albumin (HSA) (Calbiochem). The final concentration of animal serum in the assay was 50% and the final concentration of purified human serum albumin in the assay was 4%; the concentrations of all other components were identical to those described for susceptibility testing.

[6] = test system: S. aureus ATCC 13709 Novobiocin and Rifampicin resistant variant; test: microbe, parasite or virus in culture; format: cell-based; settings: for Minimum inhibitory concentration, S. aureus ATCC 13709 variant: Novobiocin and Rifampicin resistant variant
Protocol: as §1

[7] = Regeneration of drug from bone powder-bound prodrug; format: in vitro ADME
Protocol: Amounts of parent drug “regenerated” from the phosphonated prodrug were measured as follows. Washed bone powder-bound prodrugs from the above experiment were resuspended in 400 μL PBS+2% DMSO or in 400 μL 50% (v/v in PBS+2% DMSO) human or rat serum. The suspension was incubated overnight at 37° C., centrifuged at 13,000 rpm for 2 min and the supernatant was recovered. The amount of regenerated parent drug in the supernatant was determined by measurements using the microbiological assay that was previously described for the prodrugs themselves. The amount of prodrug was deduced from standard curves of known amounts of parent drug that were used as reference for each experiment.

[8] = test system: S. aureus ATCC 13709 Novobiocin resistant mutant (bone infection); test: Prophylactic efficacy in rat model of S. aureus bone infection; format: in vivo; settings: rat tibia 24 h postinfection
Protocol: Specifically, a spontaneous Novobiocin resistant mutant strain of S. aureus ATCC 13709 (a clinical osteomyelitis isolate), was grown overnight at 37° C. in brain heart infusion broth (BHIB). After 16 h of growth, cells were subcultured into fresh BHIB and incubated for 4 to 5 h at 37° C. The cells were washed twice with phosphate-buffered saline (PBS) and resuspended in BHIB supplemented with 10% (vol./vol.) fetal bovine serum at a density of approximately 10^10 colony forming units (CFU)/ml (based upon turbidimetry). The suspension was aliquoted and a portion was used to check the CFU count. The culture was stored frozen (−80° C.) and was used without subculture. For use as an inoculum the culture was thawed, diluted in PBS and kept in an ice bath until it was used.
Animals were infected as described by O'Reilly et al. (Antimicrobial Agents and Chemotherapy (1992), 36(12): 2693-97) to generate the bone infection. Female CD rats (age, 57 to 70 days; n=5/group; Charles River, St-Constant, Canada) were anaesthetized by isofluorane before and during the surgery. Following complete induction of anesthesia, the rat was placed ventral side up and hair was shaved from the surgical site. The skin over the leg was cleaned and disinfected (proviodine-ethanol 70%). A longitudinal incision below the knee joint was made in the sagital plane. The incision was made over the bone below the “knee joint” (tibia head or condyle) but not completely extending to the ankle. A high speed drill fitted with a 2 mm bulb bit was used to drill a hole into the medullar cavity of the tibia. Rats were injected intra-tibially with 0.05 ml 5% sodium morrhuate (sclerosing agent) and then with 0.05 ml of S. aureus suspension (ca. 2×10^7 CFU/rat). The hole was sealed by applying a small amount of dry dental cement which immediately absorbs fluids and adheres to the site. The wound was closed using 3 metal skin clips. Moxifloxacin (as a positive control) was injected once at 10 mg/kg intravenously 1 h postinfection in saline, while the Rifamycin derived prodrugs (prepared in 0.9% saline) were injected at the dose indicated in Table 3 as a single intravenous bolus at different time points prior to the infection.
Infected rats were sacrificed by CO2 asphyxiation 24 h postinfection to monitor the bacterial CFU count. Infected tibiae were removed, dissected free of soft tissue, and weighed. The bones were ground, resuspended in 5 ml 0.9% NaCl, serially diluted and processed for quantitative cultures. For compounds 50, 68 and 81, 1 ml of the 0.9% NaCl solution was added to 50 mg of charcoal before serial dilutions. Treatment efficacy was measured in terms of Log viable bacteria (Log CFU per gram of bone). […] The limit of detection is 2 Log CFU. […] Differences were considered significant when the P value was <0.05 when comparing treated infected animals to the untreated infected ones. The doses used, the amount of time separating the treatment from the time of infection and the treatment outcomes are shown in Table 3.

[9] = read-out: Minimum inhibitory concentration, S. aureus ATCC 13709 + 50% Human Serum
[10] = read-out: Minimum inhibitory concentration, S. aureus ATCC 13709 + 50% Mouse Serum
[11] = read-out: Minimum inhibitory concentration, S. aureus ATCC 13709 + 50% Rat Serum

| Structure (SMILES) | Minimum inhibitory concentration, E. coli LBB925 [1] [µg/mL] | Minimum inhibitory concentration, S. aureus RN4220 (S. aureus RN4220) [µg/mL] | Minimum inhibitory concentration, S. aureus ATCC 13709 (S. aureus ATCC 13709 [2]) [µg/mL] | Antibacterial activity (in words, summary of Table 1) (S. aureus ATCC 13709 [2]) | Minimum inhibitory concentration, S. aureus BK85 [3] [µg/mL] | Minimum inhibitory concentration, S. aureus ATCC 43300 [4] [µg/mL] | Impact of serum on the MICs (in words) (S. aureus ATCC 13709 [5]) | Minimum inhibitory concentration, S. aureus ATCC 13709 + 50% Human Serum (S. aureus ATCC 13709 [5]) [µg/mL] | Minimum inhibitory concentration, S. aureus ATCC 13709 + 50% Mouse Serum (S. aureus ATCC 13709 [5]) [µg/mL] | Minimum inhibitory concentration, S. aureus ATCC 13709 + 50% Rat Serum (S. aureus ATCC 13709 [5]) [µg/mL] | Activity against the Rifampicin resistant variant of S. aureus ATCC13709 (in words) [6] | Minimum inhibitory concentration, S. aureus ATCC 13709 variant [6] [µg/mL] | MIC [1] [µg/mL] | MIC (S. aureus RN4220) [µg/mL] | MIC (S. aureus ATCC 13709 [2]) [µg/mL] | MIC [4] [µg/mL] | MIC (S. aureus ATCC 13709 [5]; [9]) [µg/mL] | MIC (S. aureus ATCC 13709 [5]; [10]) [µg/mL] | MIC (S. aureus ATCC 13709 [5]; [11]) [µg/mL] | MIC [3] [µg/mL] | further results |
| --- | --- | --- | --- | --- | --- | --- | --- | --- | --- | --- | --- | --- | --- | --- | --- | --- | --- | --- | --- | --- | --- |
| CCN(CC)CC.CCN(CC)CC.CO[C@H]1/C=C/O[C@@]2(C)Oc3c(C)c(O)c4c(c3C2=O)C2=NC3(CCN(CC(C)C)CC3)NC2=C(NC(=O)/C(C)=C\C=C\[C@H](C)[C@H](OC(=O)CCC(=O)NC(P(=O)(O)O)P(=O)(O)O)[C@@H](C)[C@@H](O)[C@@H](C)[C@H](OC(C)=O)[C@@H]1C)C4=O [Compound 39, 21-O-(3-((bisphosphonomethyl)carbamoyl)propanoyl)-1′,4-didehydro-1-deoxy-1,4-dihydro-5′-(2-methylpropyl)-1-oxorifamycin XIV] | 128 | >128 | >128 | near complete loss of activity | >128 | >128 | no impact | >128 | >128 | 64 | complete lack of activity | >128 | – | – | – | – | – | – | – | – | Regeneration of parent drug once bound to bone (in words) [7]: not able to regenerate |
| CCN(CC)CC.CCN(CC)CC.CO[C@H]1/C=C/O[C@@]2(C)Oc3c(C)c(O)c4c(c3C2=O)C2=NC3(CCN(CC(C)C)CC3)NC2=C(NC(=O)/C(C)=C\C=C\[C@H](C)[C@H](OC(=O)CCCOC(=O)CCC(=O)NC(P(=O)(O)O)P(=O)(O)O)[C@@H](C)[C@@H](O)[C@@H](C)[C@H](OC(C)=O)[C@@H]1C)C4=O [Compound 54, 21-O-(4-((3-(bisphosphonomethyl)carbamoyl)propanoyloxy)butanoyl)-1′,4-didehydro-1-deoxy-1,4-dihydro-5′-(2-methylpropyl)-1-oxorifamycin XIV] | >128 | 64 | 64 | near complete loss of activity | 64 | 64 | no impact | >128 | >128 | >128 | complete lack of activity | >128 | – | – | – | – | – | – | – | – | – |
| CO[C@H]1/C=C/O[C@@]2(C)Oc3c(C)c(O)c4c(=O)c(c5oc6cc(N7CCN(CCO)CC7)cc(O)c6nc-5c4c3C2=O)NC(=O)/C(C)=C\C=C\[C@H](C)[C@H](O)[C@@H](C)[C@@H](O)[C@@H](C)[C@H](OC(C)=O)[C@@H]1C [Compound 56, 1′,4-Didehydro-1-deoxy-1,4-dihydro-3′-hydroxy-5′-[4-(2-hydroxyethyl)-1-piperazinyl]-1-oxorifamycin VIII] | – | – | – | – | – | – | – | – | – | – | – | – | 8 (≈ 8610 nM) | 0.00025 (≈ 0.269 nM) | 0.00025 (≈ 0.269 nM) | 0.00025 (≈ 0.269 nM) | 0.001 | 0.002 | 0.002 | – | Measured bacterial titer ([8]; single dose 20 mg/kg parent drug equivalent, 2 days prior to infection): 3.61 ± 1.57 Log CFU/g of bone |
| CO[C@H]1/C=C/O[C@@]2(C)Oc3c(C)c(O)c4c(=O)c(c5oc6cc(N7CCNCC7)cc(O)c6nc-5c4c3C2=O)NC(=O)/C(C)=C\C=C\[C@H](C)[C@H](O)[C@@H](C)[C@@H](O)[C@@H](C)[C@H](OC(C)=O)[C@@H]1C [Compound 69, 1′,4-Didehydro-1-deoxy-1,4-dihydro-3′-hydroxy-5′-[1-piperazinyl]-1-oxorifamycin VIII] | – | – | – | – | – | – | – | – | – | – | – | – | 4 (≈ 4520 nM) | – | 0.00048 (≈ 0.542 nM) | – | 0.0019 | 0.0019 | 0.0019 | 0.00024 (≈ 0.271 nM) | – |
| COc1c(N2C[C@@H]3CCCN[C@@H]3C2)c(F)cc2c(=O)c(C(=O)O)cn(C3CC3)c12 [Moxifloxacin, reference compound] | – | – | – | – | – | – | – | – | – | – | – | – | – | – | – | – | – | – | – | – | Measured bacterial titer, positive control ([8]; 10 mg/kg intravenously once, 1 h postinfection, 10 mg/kg): 2.36 ± 0.21 Log CFU/g of bone and 2.53 ± 0.39 Log CFU/g of bone and 2.59 ± 0.56 Log CFU/g of bone and 2.46 ± 0.52 Log CFU/g of bone and 2.56 ± 0.64 Log CFU/g of bone and 2.20 ± 0.33 Log CFU/g of bone and 2.32 ± 0.33 Log CFU/g of bone and 2.06 ± 0.04 Log CFU/g of bone |
| CO[C@H]1/C=C/O[C@@]2(C)Oc3c(C)c(O)c4c(O)c(c(/C=N/N5CCN(C)CC5)c(O)c4c3C2=O)NC(=O)/C(C)=C\C=C\[C@H](C)[C@H](O)[C@@H](C)[C@@H](O)[C@@H](C)[C@H](OC(C)=O)[C@@H]1C [Rifampicin, reference compound] | – | – | – | – | – | – | – | – | – | – | – | – | 8 (≈ 9720 nM) | 0.008 (≈ 9.72 nM) | 0.008 (≈ 9.72 nM) | 0.008 (≈ 9.72 nM) | 0.062 | 0.125 | 0.125 | 0.008 (≈ 9.72 nM) | MIC ([6]; Staphylococcus aureus, ATCC13709, read-out: Minimum inhibitory concentration, S. aureus ATCC 13709 variant): > 128 µg/mL |
